In ChEMBL document CHEMBL1124964, “Synthesis, structure, and antiparasitic activity of sulfamoyl derivatives of ribavirin” (1990):
≈ marks a conversion by molar mass, not a printed value. Where “and” joins values, the source holds several entries; their conditions need not be identical. Equal entries are not always repeated.

Experiments:
Type in all cases: functional
Leishmania donovani [1] = assay: % Suppression = 100 - 100(LDUs of experimental / LDUs of control).
Leishmania donovani [2] = assay: % […] = 100 - 100(LDUs of experimental / LDUs of control).
Mus musculus [3] = assay: In vivo LDUs (Leishmania Donovan Units) in liver of mouse at a dose of 10 mg/kg/day
Mus musculus [4] = assay: In vivo LDUs (Leishmania Donovan Units) in liver of mouse at a dose of 20 mg/kg/day
Mus musculus [5] = assay: In vivo LDUs (Leishmania Donovan Units) in liver of mouse at a dose of 50 mg/kg/day
Trypanosoma cruzi = assay: In vitro antiparasitic activity against Trypanosoma cruzi was determined; conditions: read-out: ED50 (the source's name)
[6] = test system: Trypanosoma brucei gambiense; assay: In vitro antiparasitic activity against Trypanosoma gambiense was determined; conditions: read-out: ED50 (the source's name)
Trichomonas vaginalis = assay: In vitro antiparasitic activity against […] was determined; conditions: read-out: ED50 (the source's name)
Giardia intestinalis = assay: In vitro antiparasitic activity against Giardia lamblia was determined; conditions: Giardia duodenalis; read-out: ED50 (the source's name)
Leishmania donovani [7] = assay: In vitro antiparasitic activity against Leishmania donovani was determined; conditions: read-out: ED50 (the source's name)
Mus musculus [8] = assay: In vivo antiparasitic activity against Trypanosoma brucei was tested at 25 mg/kg. Average survival time of the mice was determined
Mus musculus [9] = assay: In vivo antiparasitic activity against Trypanosoma brucei was tested at […]. Percent of mice cured after oral administration
Mus musculus [10] = assay: In vivo antiparasitic activity against Trypanosoma brucei was tested at […]. Range of survival of mice.
Leishmania donovani [11] = assay: % Suppression = 100 - 100(LDUs of experimental / LDUs of control) at
Mus musculus [12] = organism: Mus musculus; assay: LDUs (Leishmania Donovan Units) in liver The liver parasite burden expressed as Leishmania Donovanii units
Mus musculus [13] = organism: Mus musculus; assay: LDUs (Leishmania Donovan Units) in liver The liver parasite burden expressed as Leishmania Donovanii units at
Trypanosoma brucei [14] = assay: In vivo antiparasitic activity against Trypanosoma brucei was tested at 10 mg/kg. Range of survival of mice; 4-11
Trypanosoma brucei [15] = assay: In vivo antiparasitic activity against Trypanosoma brucei was tested at 1 mg/kg. Range of survival of mice; 4-5
Trypanosoma brucei [16] = assay: In vivo antiparasitic activity against Trypanosoma brucei was tested at 20 mg/kg. Range of survival of mice; 4-11
Trypanosoma brucei [17] = assay: In vivo antiparasitic activity against Trypanosoma brucei was tested at 50 mg/kg (i.v.). Range of survival of mice; 4-12; conditions: route intravenous
Trypanosoma brucei [18] = assay: In vivo antiparasitic activity against Trypanosoma brucei was tested at 50 mg/kg (p.o.). Range of survival of mice; 10-14; conditions: route oral
Trypanosoma brucei [19] = assay: In vivo antiparasitic activity against Trypanosoma brucei was tested at 50 mg/kg. Range of survival of mice; 10-4
Trypanosoma brucei [20] = assay: In vivo antiparasitic activity against Trypanosoma brucei was tested at 5 mg/kg. Range of survival of mice; 4-6
Trypanosoma brucei [21] = assay: In vivo antiparasitic activity against Trypanosoma brucei was tested. Range of survival of mice.
Trypanosoma brucei [22] = assay: In vivo antiparasitic activity against Trypanosoma brucei was tested at 20 mg/kg. Average survival time of the mice taken in this experiment.
Trypanosoma brucei [23] = assay: In vivo antiparasitic activity against Trypanosoma brucei was tested at 50 mg/kg (i.v.). Average survival time of the mice taken in this experiment.; conditions: route intravenous
Trypanosoma brucei [24] = assay: In vivo antiparasitic activity against Trypanosoma brucei was tested at 50 mg/kg (p.o.). Average survival time of the mice taken in this experiment.; conditions: route oral
Trypanosoma brucei [25] = assay: In vivo antiparasitic activity against Trypanosoma brucei was tested at 50 mg/kg. Average survival time of the mice taken in this experiment.
Trypanosoma brucei [26] = assay: In vivo antiparasitic activity against Trypanosoma brucei was tested at 5 mg/kg. Average survival time of the mice taken in this experiment.
Trypanosoma brucei [27] = assay: In vivo antiparasitic activity against Trypanosoma brucei was tested. Average survival time of the mice taken in this experiment.
Trypanosoma brucei [28] = assay: In vivo antiparasitic activity against Trypanosoma brucei was tested at 10 mg/kg. Percent of mice cured after administering the compound.
Trypanosoma brucei [29] = assay: In vivo antiparasitic activity against Trypanosoma brucei was tested at 1 mg/kg Percent of mice cured after oral administration
Trypanosoma brucei [30] = assay: In vivo antiparasitic activity against Trypanosoma brucei was tested at 20 mg/kg. Percent of mice cured after administering the compound.
Trypanosoma brucei [31] = assay: In vivo antiparasitic activity against Trypanosoma brucei was tested at 50 mg/kg (i.v.).. Percent of mice cured after administering the compound.; conditions: route intravenous
Trypanosoma brucei [32] = assay: In vivo antiparasitic activity against Trypanosoma brucei was tested at 50 mg/kg (p.o.). Percent of mice cured after administering the compound.; conditions: route oral
Trypanosoma brucei [33] = assay: In vivo antiparasitic activity against Trypanosoma brucei was tested at 50 mg/kg. Percent of mice cured after administering the compound.
Trypanosoma brucei [34] = assay: In vivo antiparasitic activity against Trypanosoma brucei was tested at 5 mg/kg. Percent of mice cured after administering the compound.
Trypanosoma brucei [35] = assay: In vivo antiparasitic activity against Trypanosoma brucei was tested. Percent of mice cured after administering the compound.
Trypanosoma brucei [36] = assay: In vivo antiparasitic activity against Trypanosoma brucei was tested at 10 mg/kg. Average survival time of the mice taken in this experiment.
Trypanosoma brucei [37] = assay: In vivo antiparasitic activity against Trypanosoma brucei was tested at 1 mg/kg. Average survival time of the mice was determined

SMILES: NC(=S)c1ncn(C2O[C@H](COS(N)(=O)=O)[C@@H](O)[C@H]2O)n1 (stereo partly specified)
- Suppression (Leishmania donovani [1]): 0%
- Suppression (Leishmania donovani [2]): 0%
- Activity (Mus musculus [3]): 1039
- Activity (Mus musculus [4]): 1143
- Activity (Mus musculus [5]): 1514
- EC50 (Trypanosoma cruzi): > 50 µg/mL
- EC50 [6]: 0.5 µg/mL (≈ 1.47 µM)
- EC50 (Trichomonas vaginalis): 15 µg/mL (≈ 44.2 µM)
- EC50 (Giardia intestinalis): > 25 µg/mL
- EC50 (Leishmania donovani [7]): 2.5 µg/mL (≈ 7.37 µM)

SMILES: N#Cc1ncn(C2O[C@H](COS(N)(=O)=O)[C@@H](O)[C@H]2O)n1 (stereo partly specified)
- EC50 (Trypanosoma cruzi): > 50 µg/mL
- EC50 [6]: 1 µg/mL (≈ 3.28 µM)
- EC50 (Trichomonas vaginalis): > 25 µg/mL
- EC50 (Giardia intestinalis): > 25 µg/mL
- EC50 (Leishmania donovani [7]): 1 µg/mL (≈ 3.28 µM)

SMILES: O=C1N=CN=C2C1N=CC2[C@@H]1O[C@H](CO)[C@@H](O)[C@H]1O (stereo partly specified)
- Average survival (Mus musculus [8]): 35 days
- Cured (Mus musculus [9]): 100%
- Range of survival (Mus musculus [10]): 35

SMILES: NC(=O)c1ncn(C2O[C@H](COS(N)(=O)=O)[C@@H](O)[C@H]2O)n1 (stereo partly specified)
- Suppression (Leishmania donovani [1]): 50% and 67%
- Suppression (Leishmania donovani [11]): 18%
- Activity (Mus musculus [12]): 765 and 501
- Activity (Mus musculus [13]): 1244
- EC50 (Trypanosoma cruzi): > 50 µg/mL
- EC50 [6]: 0.01 µg/mL (≈ 0.0309 µM)
- EC50 (Trichomonas vaginalis): > 25 µg/mL
- Range of survival (Trypanosoma brucei [14]): 4
- Range of survival (Trypanosoma brucei [15]): 4
- Range of survival (Trypanosoma brucei [16]): 4
- Range of survival (Trypanosoma brucei [17]): 4
- Range of survival (Trypanosoma brucei [18]): 10
- Range of survival (Trypanosoma brucei [19]): 4
- Range of survival (Trypanosoma brucei [20]): 4
- Range of survival (Trypanosoma brucei [21]): 5
- Average survival (Trypanosoma brucei [22]): 7.4 days
- Average survival (Trypanosoma brucei [23]): 6.4 days
- Average survival (Trypanosoma brucei [24]): 11.6 days
- Average survival (Trypanosoma brucei [25]): 6.4 days
- Average survival (Trypanosoma brucei [26]): 4.8 days
- Average survival (Trypanosoma brucei [27]): 3.4 days
- Cured (Trypanosoma brucei [28]): 0%
- Cured (Trypanosoma brucei [29]): 0%
- Cured (Trypanosoma brucei [30]): 0%
- Cured (Trypanosoma brucei [31]): 0%
- Cured (Trypanosoma brucei [32]): 0%
- Cured (Trypanosoma brucei [33]): 0%
- Cured (Trypanosoma brucei [34]): 0%
- Cured (Trypanosoma brucei [35]): 0%
- Average survival (Trypanosoma brucei [36]): 7.4 days
- Average survival (Trypanosoma brucei [37]): 4.6 days
- EC50 (Giardia intestinalis): 10 µg/mL (≈ 30.9 µM)
- EC50 (Leishmania donovani [7]): 0.03 µg/mL (≈ 0.0928 µM)
